The text below walks through data of patent US20130210034A1, “COMPLEX PHOSPHOPROTEIN ACTIVATION PROFILES” (BECKMAN COULTER, INC., priority 2005, published 2013).

Common to all, as to format: cell-based, human
The test system of experiment [1] is pSTAT5. Put plainly: Cytokine-stimulated phosphorylation in AML cell populations (BM or PB of AML patients). The protocol: (§1) To assess the signal transduction response after growth factor simulation, a series comprising two sets of tubes including about 3×10^6 cells/100 μL were incubated at 37° C. for 30 minutes. After this pre-incubation period, tubes with then processes with either a stimulant or inhibitor. […] To examine the effects of protein phosphorylation inhibition, tubes were incubated with an inhibitor cocktail comprising 100 μM/100 μL UO126, 1 μM/100 μL LY294002, and 1 μM/100 μL rapamycin. One unstimulated tube receiving no stimulant or inhibitor was processed to assess basal levels of phospho-protein expression. After stimulation the cells were immediately fixed in 10% formaldehyde solution at 37° C. Pre-labeling with CD13, CD16 and CD64 antibodies was carried out 20 minutes prior to formaldehyde fixation. After fixation, one set of tubes was permeabilized without methanol for pAKT, pERK and pS6 staining and the other for 80% methanol permeabilized for pSTAT3 and pSTAT5 staining. After permeablization, the cells were washed in PBS with 2% BSA and blocked by re-suspended in 75 μL of PBS comprising 25% heat inactivated normal mouse serum, 25% normal rabbit serum. To stain cells with fluorescent conjugated monoclonal antibodies, samples were incubated on ice for 45 minutes in 100 μL of an antibody staining solution including either: 1) CD15-Pacific Orange, CD34-Phycoerythrin-Texas Red, CD117-Phycoerythrin-Cyanin 5.5, CD45-Allophycocyanin-Alexa Fluor 750 (or CD45-Pacific Orange, in which case CD15-Pacific Orange was omitted), pS6-Pacific Blue, pERK-Alexa Fluor 488 and pAKT-Alexa Fluor 647 or 2) CD15-Pacific Orange, CD34-Phycoerythrin-Texas Red, CD117-Phycoerythrin-Cyanin 5.5, CD45-Allophycocyanin-Alexa Fluor 750 or CD45-Pacific Blue, pSTAT3-Alexa Fluor 488 and pSTAT5-Phycoerythrin. The stained cells were washed twice with ice cold PBS containing 2% BSA and centrifuged at 800 g for 6 minutes at 4° C. The supernatant was discarded and cells re-suspended in 250 μL of chilled wash buffer for data acquisition. Stained cells were examined using either GALIOS flow cytometer (Beckman Coulter) or CYAN ADP (Beckman Coulter) equipped with 488 nm, 405 nm and 635 nm lasers to detect the degree of fluorescence. Data were analyzed using FCS Express (De Novo Software, CA) analysis software.
(§2) Specific phosphoprotein expression of pERK, pS6, pAKT, pSTAT5, and pSTAT3 was examined in seven discrete phenotypically defined populations based on 7-color immunophenotyping (FIG. 1). The percent of responding (phosphorprotein positive) cells for each of these populations was determined from individual single parameter histograms based on a fixed integration region set on the inhibitor treated control at about 3% positives.
(§3) Using normal BM signaling profiles of Example 1 as comparison, analysis of 14 AML samples was carried out to identify differences in signaling responses. White blood cells from BM or peripheral blood (PB) samples were obtained from 14 diagnosed AML patients undergoing routine clinical flow cytometry analysis using IRB approved protocols. The AML patients included newly diagnosed AML, AMLs arising in a background of MDS, therapy related AMLs and previously diagnosed AML post therapy. The median age of the patients at diagnosis was 51 years (range: 29-75 years) and represented 5 female and 9 male patients. The median white blood cell was 6.4 million/mL (range: 0.9-106 M/mL) and the BM morphologic blast count was an average of 46% (range: 0%-90%).
(§4) Experiments performed to assess the signal transduction response after growth factor simulation were performed as described for Example 1.

The test system of experiment [2] is pAKT. The description is as above. The protocol: as §1, §2, §3, §4
Experiment [3] concerns pERK and pS6. Nature of the experiment: Comparison of SCF-stimulated pERK and pS6 (pERK/pS6 ratios) in healthy donor and AML bone marrow samples. The method, then:
In an attempt to dissect the differences between the pERK and pS6 kinetic profiles in healthy donor and AML bone marrow sampless, SCF-stimulated pERK and pS6 data derived from AML1, ALM2, and healthy donors 6 to 9 were analyzed from four different perspectives: MFI, the frequency of positive-stained cells, the ratio of positive to negative cells, and fold stimulation (FIG. 10 and Table 10). The ratio of positives to negative cells was calculated by estimating the AUC of both positive- and negative-stained cells at each t=n, and then expressing this as the ratio of positives to negatives. The fold stimulation was the fold change of the positive/negative ratio at t=n over the baseline ratio at t=0 min. […] However, this was not the case in the AML samples.

For “Granulocyte-Macrophage Colony-Stimulating Factor [GM-CSF]”, the “pSTAT5, AML Sample” value in experiment [1] (patient AML2 (Example 3)) turned out to be 14.6; in experiment [1] (patient AML5 (Example 3)) it was 2.0; in experiment [1] (patient AML6 (Example 3)), 2.5; in experiment [1] (patient AML8 (Example 3)), 10.6; in experiment [1] (patient AML13 (Example 3)), 14.6; in experiment [1] (patient AML14 (Example 3)), 4.7.

In the case of Stem Cell Factor [SCF], the “pAKT, AML Sample” value in experiment [2] (patient AML5 (Example 3)) was “typical upregulation of pAKT”. Moreover, the “pAKT activation kinetics compared to normal” value in experiment [2] (patient AML7 (Example 3), abnormal blasts) is “significant delayed activation, and prolonged expression”. Also, the “pAKT, AML Sample” value in experiment [2] (patient AML11 (Example 3)) is 3.2. In experiment [3] (AML1), the “Fold Stimulation, pERK/pS6” value turned out to be 1.4; the “Frequency, pERK/pS6” value is reported as 0.92; the “MFI, pERK/pS6” value was found to be 0.48; the “Positives/Negatives, pERK/pS6” value is on record as 0.29. For the same molecule, in experiment [3] (AML2), the “Fold Stimulation, pERK/pS6” value is 2.1; the “Frequency, pERK/pS6” value is 0.93; the “MFI, pERK/pS6” value came out at 0.54; the “Positives/Negatives, pERK/pS6” value was 0.32. For the same molecule, in experiment [3] (AML samples), the “[(pERK)max:(pS6)max]MFI ratio” value is “about 0.5” and the “[(pERK)max:(pS6)max]POS/NEG ratio” value is reported as “about 0.3”. In experiment [3] (healthy donors 6 to 9), the “Fold Stimulation, pERK/pS6” value stood at 5.3; the “Frequency, pERK/pS6” value was 3.1; the “MFI, pERK/pS6” value stood at 3.6; the “Positives/Negatives, pERK/pS6” value is on record as 11.

B1: FMS-Like Tyrosine Kinase 3 (FLT-3) ligand (protein, UniProt P49771 27-235, looked up)
Fms-related tyrosine kinase 3 …: TQDCSFQHSPISSDFAVKIRELSDYLLQDYPVTVASNLQDEELCGGLWRLVLAQRWMERLKTVAGSKMQGLLERVNTEIHFVTKCAFQPPPSCLRFVQTNISRLLQETSEQLVALKPWITRQNFSRCLELQCQPDSSTLPPPWSPRPLEATAPTAPQPPLLLLLLLPVGLLLLAAAWCLHWQRTRRRTPRPGEQVPPVPSPQDLLLVEH
For the molecule B1, in experiment [2] (patient AML5 (Example 3)), the “pAKT, AML Sample” value is on record as 8.1.
